Measured values published in patent US20240018161A1, “MODULATORS OF CYSTIC FIBROSIS TRANSMEMBRANE CONDUCTANCE REGULATOR” (VERTEX PHARMACEUTICALS INCORPORATED, priority 2020, published 2024).
Read-outs that look alike come from different tables or passages of the source. One block for each compound: values may come before it.

Assays:
[1] = 13-membered ring
[2] = target: T1, CFTR-mediated chloride transport in human intestinal epithelial enteroid cells (Homo sapiens, UniProt P13569); test: Membrane potential dye, Enteroid Assay B; assay type: cell-based; conditions: Enteroid Assay B; for EC50: read-out: Ent. B EC50
Method: Base medium (ADF+++) consisted of Advanced DMEM/Ham's F12, 2 mM Glutamax, 10 mM HEPES, […] penicillin/streptomycin.
Bath 1 Buffer consisted of 1 mM MgCl2, 160 mM NaCl, 4.5 mM KCl, 10 mM HEPES, 10 mM Glucose, 2 mM CaCl2.
Chloride Free Buffer consisted of 1 mM Magnesium Gluconate, 2 mM Calcium Gluconate, 4.5 mM Potassium Gluconate, 160 mM Sodium Gluconate, 10 mM HEPES, 10 mM Glucose.
Bath1 Dye Solution consisted of Bath 1 Buffer, 0.04% Pluronic F127, 20 μM Methyl Oxonol, 30 μM CaCCinh-A01, 30 μM Chicago Sky Blue.
Chloride Free Dye Solution consisted of Chloride Free Buffer, 0.04% Pluronic F127, 20 μM Methyl Oxonol, 30 μM CaCCinh-A01, 30 μM Chicago Sky Blue.
3. Enteroid Cell Harvesting and Seeding
Cells were recovered in cell recovery solution, collected by centrifugation at 650 rpm for 5 min at 4° C., resuspended in TryPLE and incubated for 5 min at 37° C. Cells were then collected by centrifugation at 650 rpm for 5 min at 4° C. and resuspended in IEMM containing 10 μM ROCK inhibitor (RI).
5. Membrane Potential Dye, Enteroid Assay B
Briefly, cells were washed 5 times in Bath 1 Buffer. Bath 1 Dye Solution was added and the cells were incubated for 25 min at room temperature. Following dye incubation, cells were washed 3 times in Chloride Free Dye Solution. Chloride transport was initiated by addition of Chloride Free Dye Stimulation Solution and the fluorescence signal was read for 15 min.

[3] = target: T1, CFTR-mediated chloride transport in human intestinal epithelial enteroid cells; test: Membrane potential dye, Enteroid Assay A; assay type: cell-based; conditions: for EC50: read-out: Ent. A EC50
Procedure, shortened: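 Membrane potential dye (20 μM methyl oxonol, with 30 μM CaCCinh-A01 and 30 μM Chicago Sky Blue) loaded 25 min at room temperature into ROCK-inhibitor-seeded human enteroid cells. Chloride-free stimulation buffer triggered transport, followed by 15 min fluorescence. % Activity relative to 3 μM/3 μM/300 nM triple-combination control.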

[4] = from Cc1cccc(C)c1-c1cc(OC2CCCC(c3ncc(OC(C)C)cn3)N[C@@H]2CC(C)C)nc(NS(=O)(=O)c2cccc(C(=O)O)c2)n1, amide bond, CDMT/NMM, DMF, 7.3 mM, 60.0 h

T1 sequence (P13569 with tags, fused parts or gaps DEL508-508): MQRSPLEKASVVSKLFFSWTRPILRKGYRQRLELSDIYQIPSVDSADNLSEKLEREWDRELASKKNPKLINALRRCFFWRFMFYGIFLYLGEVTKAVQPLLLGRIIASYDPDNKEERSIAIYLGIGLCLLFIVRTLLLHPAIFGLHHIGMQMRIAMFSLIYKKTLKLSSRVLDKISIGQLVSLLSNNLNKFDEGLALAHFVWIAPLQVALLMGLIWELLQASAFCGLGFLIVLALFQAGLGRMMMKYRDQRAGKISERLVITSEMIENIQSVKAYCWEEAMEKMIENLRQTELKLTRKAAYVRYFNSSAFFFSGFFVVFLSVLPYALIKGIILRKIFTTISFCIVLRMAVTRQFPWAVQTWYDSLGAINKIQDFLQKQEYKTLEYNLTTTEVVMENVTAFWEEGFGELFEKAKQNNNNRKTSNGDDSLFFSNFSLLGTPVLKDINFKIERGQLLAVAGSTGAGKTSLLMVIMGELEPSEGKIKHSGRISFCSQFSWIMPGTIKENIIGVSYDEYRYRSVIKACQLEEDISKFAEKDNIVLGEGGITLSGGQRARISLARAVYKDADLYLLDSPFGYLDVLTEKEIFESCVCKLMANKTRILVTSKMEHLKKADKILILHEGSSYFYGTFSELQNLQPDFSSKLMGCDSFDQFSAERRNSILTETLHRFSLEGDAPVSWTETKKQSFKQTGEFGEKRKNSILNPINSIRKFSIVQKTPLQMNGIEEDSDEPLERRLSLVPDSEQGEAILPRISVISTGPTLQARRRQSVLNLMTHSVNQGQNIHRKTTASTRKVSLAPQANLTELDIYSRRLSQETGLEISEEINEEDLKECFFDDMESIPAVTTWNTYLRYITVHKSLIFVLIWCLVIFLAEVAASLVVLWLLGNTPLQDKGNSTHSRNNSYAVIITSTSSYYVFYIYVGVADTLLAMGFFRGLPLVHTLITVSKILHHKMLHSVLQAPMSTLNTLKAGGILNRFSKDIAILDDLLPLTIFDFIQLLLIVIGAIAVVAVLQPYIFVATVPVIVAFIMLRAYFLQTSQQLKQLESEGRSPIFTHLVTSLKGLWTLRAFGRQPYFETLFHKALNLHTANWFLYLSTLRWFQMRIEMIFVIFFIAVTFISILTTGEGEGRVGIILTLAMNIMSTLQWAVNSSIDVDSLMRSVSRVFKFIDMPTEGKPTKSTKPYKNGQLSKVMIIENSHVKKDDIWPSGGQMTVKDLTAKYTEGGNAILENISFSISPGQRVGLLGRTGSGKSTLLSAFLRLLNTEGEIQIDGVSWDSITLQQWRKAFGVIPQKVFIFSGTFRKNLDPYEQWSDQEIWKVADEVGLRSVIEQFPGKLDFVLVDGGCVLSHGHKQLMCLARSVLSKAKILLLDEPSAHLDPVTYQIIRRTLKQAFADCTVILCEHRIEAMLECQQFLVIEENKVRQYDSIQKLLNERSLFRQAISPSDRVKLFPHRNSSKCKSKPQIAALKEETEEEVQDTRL

SMILES: Cc1cccc(C)c1-c1cc2nc(n1)NS(=N)(=O)c1cccc(c1)C(=O)N1CCN(C(=O)OC(C)(C)C)CC(C1)O2 (centres unmarked)
ring closure, isolated yield ([1]; from Cc1cccc(C)c1-c1cc(Cl)nc(NS(=N)(=O)c2cccc(C(=O)N3CCN(C(=O)OC(C)(C)C)CC(O)C3)c2)n1, snar bond, NaH, DMF, 15.3 mM, 1.5 h): 23%

SMILES: Cc1cccc(C)c1-c1cc2nc(n1)NS(=O)(=O)c1cccc(c1)C(=O)N1C(c3ncc(OC(C)C)cn3)CCCC(O2)[C@H]1CC(C)C (some centres unmarked)
ring closure, isolated yield [1, 4]: 14%

SMILES: Cc1cccc(C)c1-c1cc2nc(n1)NS(=O)(=O)c1cccc(c1)C(=O)N1CC(C)(C)CC(O2)C1CC(C)C (centres unmarked)
ring closure, isolated yield ([1]; from Cc1cccc(C)c1-c1cc(Cl)nc(NS(=O)(=O)c2cccc(C(=O)N3CC(C)(C)CC(O)C3CC(C)C)c2)n1, snar bond, NaH, DMF, 16.4 mM, 25.0 °C, 16.0 h): 23%
ring closure, isolated yield ([1]; from Cc1cccc(C)c1-c1cc(Cl)nc(NS(=O)(=O)c2cccc(C(=O)N3CC(C)(C)CC(O)C3CC(C)C)c2)n1, snar bond, NaH, DMF, 17.8 mM, 25.0 °C, 8.0 h): 72%

SMILES: Cc1cccc(C)c1-c1cc2nc(n1)NS(=O)(=O)c1cccc(c1)C(=O)N1CCN(C(=O)OC(C)(C)C)CC1CO2 (centres unmarked)
ring closure, isolated yield ([1]; from Cc1cccc(C)c1-c1cc(OCC2CN(C(=O)OC(C)(C)C)CCN2)nc(NS(=O)(=O)c2cccc(C(=O)O)c2)n1, amide bond, HATU/DIEA, DMF, 13.8 mM, 25.0 °C, 2.0 h, 2 steps): 81%

SMILES: Cc1cccc(C)c1-c1cc2nc(n1)NS(=O)(=O)c1cccc(c1)C(=O)N1CCN(C(=O)OC(C)(C)C)C[C@H](C1)O2
ring closure, isolated yield ([1]; from Cc1cccc(C)c1-c1cc(Cl)nc(NS(=O)(=O)c2cccc(C(=O)N3CCN(C(=O)OC(C)(C)C)C[C@@H](O)C3)c2)n1, snar bond, NaH, DMF, 33.1 mM, 0.0 °C, 3.5 h): 64%

SMILES: Cc1cccc(C)c1-c1cc2nc(n1)NS(=O)(=O)c1cccc(c1)C(=O)N1CCN(C(=O)OC(C)(C)C)C[C@H]1CO2
ring closure, isolated yield ([1]; from Cc1cccc(C)c1-c1cc(Cl)nc(NS(=O)(=O)c2cccc(C(=O)N3CCN(C(=O)OC(C)(C)C)C[C@H]3CO)c2)n1, snar bond, NaH, NMP, 4.4 mM, 70.0 °C, 2.0 h, 2 steps): 19%

SMILES: Cc1cccc(C)c1-c1cc2nc(n1)NS(=O)(=O)c1cccc(c1)C(=O)N1CCN(C(=O)OCc3ccccc3)C[C@H](C1)O2
ring closure, isolated yield ([1]; from Cc1cccc(C)c1-c1cc(Cl)nc(NS(=O)(=O)c2cccc(C(=O)N3CCN(C(=O)OCc4ccccc4)C[C@@H](O)C3)c2)n1, snar bond, NaH, DMF, 30.4 mM, 5.0 °C, 2.0 h): 44%

SMILES: Cc1cccc(C)c1-c1cc2nc(n1)NS(=O)(=O)c1cccc(c1)C(=O)N1Cc3cc(C(C)(C)C)ccc3C(C1)O2 (centres unmarked)
ring closure, isolated yield ([1]; from Cc1cccc(C)c1-c1cc(OC2CNCc3cc(C(C)(C)C)ccc32)nc(NS(=O)(=O)c2cccc(C(=O)O)c2)n1, amide bond, HATU/NaOtBu, THF/DMF, 25.0 °C, 0.25 h, 3 steps): 14%

EC50 [2]: < 1 µM
SMILES: Cc1cccc(C)c1-c1cc2nc(n1)NS(=O)(=O)c1cccc(c1)C(=O)N1CCc3cc(C(C)(C)C)ccc3C(O2)[C@H]1CC(C)C (single isomer, unassigned) [Compound 237]
ring closure, yield after HPLC (from Cc1cccc(C)c1-c1cc(OC2c3ccc(C(C)(C)C)cc3CCN[C@@H]2CC(C)C)nc(NS(=O)(=O)c2cccc(C(=O)O)c2)n1, amide bond, 13-membered ring, NaOtBu, HATU, THF/DMF, 19.2 mM, 0.0 °C, 0.08 h, 2 steps): 18%

SMILES: Cc1cccc(C)c1-c1cc2nc(n1)NS(=O)(=O)c1cccc(c1)C(=O)N1CCN(C(=O)OCc3ccccc3)CC(O2)[C@H]1C (single isomer, unassigned; diastereomer 1)
ring closure, isolated yield ([1]; from Cc1cccc(C)c1-c1cc(Cl)nc(NS(=O)(=O)c2cccc(C(=O)N3CCN(C(=O)OCc4ccccc4)CC(O)[C@H]3C)c2)n1, snar bond, NaH, DMF, 29.4 mM, 0.0 °C, 1.25 h): 17%

SMILES: Cc1cccc(C)c1-c1cc2nc(n1)NS(=O)(=O)c1cccc(c1)C(=O)N1C(c3ncc(OC(C)C)cn3)CCCC(O2)[C@H]1CC(C)C (single isomer, unassigned; isomer 1)
ring closure, isolated yield ([1]; from Cc1cccc(C)c1-c1cc(OC2CCCC(c3ncc(OC(C)C)cn3)N[C@@H]2CC(C)C)nc(NS(=O)(=O)c2cccc(C(=O)O)c2)n1, amide bond, CDMT/NMM, DMF, 16.3 mM, 24.0 h): 23%

SMILES: Cc1cccc(C)c1-c1cc2nc(n1)NS(=O)(=O)c1cccc(c1)C(=O)N1C(c3ncc(OC(C)C)cn3)CCCC(O2)[C@H]1CC(C)C (single isomer, unassigned; isomer 2)
ring closure, isolated yield [1, 4]: 27%

SMILES: Cc1cccc(C)c1-c1cc2nc(n1)NS(=O)(=O)c1cccc(c1)C(=O)N1C(c3ncc(OC(C)C)cn3)CCCC(CC(C)C)C1CO2 (single isomer, unassigned; isomer a)
ring closure, isolated yield ([1]; from Cc1cccc(C)c1-c1cc(OCC2NC(c3ncc(OC(C)C)cn3)CCCC2CC(C)C)nc(NS(=O)(=O)c2cccc(C(=O)O)c2)n1, amide bond, CDMT/NMM, DMF, 16.2 mM, 40.0 h, 2 steps): 35%

EC50 ([3]; enteroid cells incubated with test compound 18-24 hours, acute 10 μM forskolin and 300 nM N-[2,4-bis(1,1-dimethylethyl)-5-hydroxyphenyl]-1,4-dihydro-4-oxoquinoline-3-carboxamide): < 1 µM
SMILES: Cc1cccc(C)c1-c1cc2nc(n1)NS(=O)(=O)c1cccc(c1)C(=O)N1CCN(C(=O)OC(C)(C)C)CC(C1)O2 (centres unmarked) [Compound 43, tert-Butyl 12-(2,6-dimethylphenyl)-2,8,8-trioxo-15-oxa-8λ^6-thia-1,9,11,18,22-pentaazatetracyclo[14.4.1.13,7.110,14]tricosa-3(23),4,6,10(22),11,13-hexaene-18-carboxylate]
ring closure, isolated yield ([1]; from Cc1cccc(C)c1-c1cc(Cl)nc(NS(=O)(=O)c2cccc(C(=O)N3CCN(C(=O)OC(C)(C)C)CC(O)C3)c2)n1, snar bond, NaH, DMF, 15.5 mM, 25.0 °C, 16.0 h): 56%
Ent. A Max Activity (%) ([3]; percentage of chloride transport of triple combination control (3 μM N-[(6-amino-2-pyridyl)sulfonyl]-6-(3-fluoro-5-isobutoxy-phenyl)-2-[(4S)-2,2,4-trimethylpyrrolidin-1-yl]pyridine-3-carboxamide based)): +++ (+++ is >60%)

Ent. A Max Activity (%) ([3]; Enteroid Assay A): ++ (++ is 30-60%)
EC50 ([3]; Enteroid Assay A): < 1 µM
SMILES: Cc1cccc(C)c1-c1cc2nc(n1)NS(=O)(=O)c1cccc(c1)CN1CC(CN(C(=O)OC(C)(C)C)CC1=O)O2 (centres unmarked) [Compound 77, tert-Butyl 12-(2,6-dimethylphenyl)-8,8,20-trioxo-15-oxa-8λ^6-thia-1,9,11,18,22-pentaazatetracyclo[14.4.1.13,7.110,14]tricosa-3(23),4,6,10,12,14(22)-hexaene-18-carboxylate]
ring closure, isolated yield ([1]; from Cc1cccc(C)c1-c1cc(OC2CNC(=O)CN(C(=O)OC(C)(C)C)C2)nc(NS(=O)(=O)c2cccc(CBr)c2)n1, other bond, NaH, DMF, 19.7 mM, 0.0 °C, 0.5 h): 68%

Ent. A Max Activity (%) ([3]; Enteroid Assay A): +++ (+++ is >600%)
EC50 ([3]; Enteroid Assay A): < 1 µM
SMILES: Cc1cccc(C)c1-c1cc2nc(n1)NS(=O)(=O)c1cccc(c1)C(=O)N1CCN(Cc3ccccc3)C[C@@H](O2)[C@H]1CC(C)C [Compound 84, (16R,21R)-18-Benzyl-12-(2,6-dimethylphenyl)-21-(2-methylpropyl)-15-oxa-8λ^6-thia-1,9,11,18,22-pentaazatetracyclo[14.4.1.13,7.110,14]tricosa-3(23),4,6,10,12,14(22)-hexaene-2,8,8-trione]
ring closure, isolated yield ([1]; from Cc1cccc(C)c1-c1cc(Cl)nc(NS(=O)(=O)c2cccc(C(=O)N3CCN(Cc4ccccc4)C[C@H](O)[C@H]3CC(C)C)c2)n1, snar bond, NaH, DMF, 16.6 mM, 25.0 °C, 72.0 h): 35%

Ent. B Max Activity (%) [2]: ++ (++ is 30-60%)
EC50 [2]: < 1 µM
SMILES: Cc1cccc(C)c1-c1cc2nc(n1)NS(=O)(=O)c1cccc(c1)C(=O)N1C[C@@H](CCCC1CC(C)C)O2 (stereo partly drawn) [Compound 181, (16R)-12-(2,6-Dimethylphenyl)-20-(2-methylpropyl)-15-oxa-8λ^6-thia-1,9,11,22-tetraazatetracyclo[14.4.1.13,7.110,14]tricosa-3(23),4,6,10(22),11,13-hexaene-2,8,8-trione]
ring closure, yield after HPLC (from Cc1cccc(C)c1-c1cc(Cl)nc(NS(=O)(=O)c2cccc(C(=O)N3C[C@H](O)CCCC3CC(C)C)c2)n1, snar bond, 13-membered ring, NaOtBu, THF, 17.5 mM, 25.0 °C, 24.0 h): 4%

EC50 [2]: < 1 µM
SMILES: Cc1cccc(C)c1-c1cc2nc(n1)NS(=O)(=O)c1cccc(c1)C(=O)N1Cc3ccccc3C(CO2)C1 (centres unmarked) [Compound 238, 12-(2,6-Dimethylphenyl)-15-oxa-8λ^6-thia-1,9,11,26-tetraazapentacyclo[15.7.1.13,7.110,14.018,23]heptacosa-3,5,7(27),10(26),11,13,18,20,22-nonaene-2,8,8-trione]
ring closure, yield after HPLC (from Cc1cccc(C)c1-c1cc(OCC2CNCc3ccccc32)nc(NS(=O)(=O)c2cccc(C(=O)O)c2)n1, amide bond, 14-membered ring, HATU/DIEA, DMF/THF, 136.0 mM, 16.0 h, 2 steps): 5%
